How the values were obtained:
[1] = test system: U266 cells; assay: MM xenograft (U266 cells, subcutaneous) in NSG mice; type: in vivo; conditions: 5 mg/kg WIN-55,212-2 intraperitoneally every 24 h or 48 h
Method: NOD/scid/IL-2R gammae null (NSG) mice were purchased from Charles River Laboratories International (L'Arbresle, France) and maintained with food and water ad libitum, under specific pathogen-free conditions. When mice were 8-9 weeks old, human tumor xenografts were induced by subcutaneous inoculation in suprascapular area of MM cell line U266 cells. To establish tumor, 5×10e6 cells were resuspended in 100 ul RPMI medium without serum and 100 ul of Matrigel (BD Biosciences). To easy visualization the hair was trimmed from the site of inoculation. Closely second week following implantation, when tumors became palpable (>0.5 cm), mice were randomly assigned to the following groups (10 mice per group): group 1 received intraperitoneally 5 mg/kg WIN-55,212-2 every 24 h, group 2 received the treatment every 48 hl and group 3 received vehicle. […] Tumor growth was assessed three times each week following tumor implantation. Two bisecting diameters of each tumor were measured with calipers, and the volume was calculated using the formula length x (width) e2×0.4 mm3. […]
The administration with cannabinoids inhibits remarkably the growth of tumor in vivo. Finally, we analyzed the anti-tumor effect of the cannabinoids in vivo, using a model of human MM xenografted in immunodeficient mice NOD/SCID. […]

[2] = test system: HL60 cells; assay: Western blot of ER-stress regulator proteins in HL60 cells; type: cell-based, human; conditions: HL60, WIN-55 50 uM
Method: FIG. 19. […] Expression analysis by Western blot of regulator proteins of ER-stress in HL60 cells treated with WIN-55 50 uM.
Extracted proteins (15-25 ug/well) were separated by sodium dodecyl sulfate-polyacrylamide gel electrophoresis (SDS/PAGE) in pre-cast polyacrylamide gels AnykD (Bio-Rad Laboratories, Hercules, Calif., USA) under reducing and denaturing conditions. Electrophoretic run was performed at a constant current of 15 mA per gel in a Mini-Protean® Tetra Cell (Bio-Rad Laboratories) and were electrophoretically transferred onto PVDF membranes using Trans-Blot® Turbo™ System (Bio-Rad Laboratories). Blocking was performed with 2% bovine serum albumin [(BSA), Santa Cruz Biotechnology] in Tween-Tris buffer saline (TTBS). Membranes were incubated overnight at 4° C. with corresponding primary antibody in TTBS.

[3] = test system: U266 cells; assay: Western blot of signaling pathways (MAPKs, Akt) in U266 cells; type: cell-based, human
Method: Protein analyses were performed by Western blot in several sets of assays: expression pattern of CBs-receptors in MM cell lines and primary cells, and time course after treatment with cannabinoids in MM cell lines. Time-course assays were performed at 0, 2, 6, 18 and 24 hours. Anyway, obtaining cell lysates was conducted according to a protocol adapted to phosphorylation-dependent signaling, described by Gilbert et al. (2002). Briefly, 10e7 cells per condition were harvested at indicated times, washed with iced-cold PBS and lysate in isotonic lysis buffer 30 min keeping on ice. Isotonic lysis buffer contained 2% ASB-14 (CalbioChem, San Diego, Calif., USA),1% Nonidet P-40 (Ipegal®), 137 mM NaCl, 20mM Tris-HCl pH 7.5 at 4° C. (all from Sigma-Aldrich), 2 mM Na3VO4, 20 mM NaF (New England BioLabs Inc., Ipswich, Mass., USA), 2 mM DTT (AppliChem, Darmstadt, Germany), protease inhibitor cocktail (Roche Diagnostics GmbH, Mannheim, Germany), and 10 ul Nuclease Mix (Amersham GE Healthcare, Uppsala, Sweden). After lysis, samples were centrifuged at 13,000×g for 5 min at 4° C., and supernatants collected. Protein concentration in samples was determined by Pierce® Microplate BCA Protein Assay kit-Reducing Agent Compatible (Thermo Fisher Scientific). Before loading the samples in the gel, they were diluted in loading sample buffer (0.125 M Tris-HCl pH 6.8, 4% SDS, 20% glycerol, 0.02% Bromophenol Blue, 200 mM DTT) and the mixture was heated at 70° C. for 5 min in a thermoblock (LabNet International, N.J., USA).
Samples (15-25 ug/lane) were subjected to SDS/PAGE in pre-cast polyacrylamide gels AnykD (Bio-Rad Laboratories, Hercules, CA, USA) under reducing and denaturing conditions. Electrophoretic run was performed at a constant current of 15 mA per gel in a Mini-Protean® Tetra Cell (Bio-Rad Laboratories). Once proteins were separated by electrophoresis, were transferred onto PVDF membranes using Trans-Blot® Turbo™ System (Bio-Rad Laboratories). Electrotransference was conducted at constant amperage of 1.2 mA and at up to 25 V of voltage. The blotted membranes were then blocked with 2% bovine serum albumin [(BSA), Santa Cruz Biotechnology] in Tween-Tris buffer saline (TTBS) for 30 min with gentle agitation, and incubated overnight at 4° C. with corresponding primary antibody in TTBS. After twice washing with TTBS, membranes were incubated for 1-2 h at room temperature with suitable conjugated-HRP secondary antibody, and subjected to chemiluminescence detection using Western Blotting Luminol Reagent (Santa Cruz Biotechnology). Loading controls were carried out with an anti-beta-actin and anti-beta-tubulin antibodies (Sigma-Aldrich). Blots were captured using a digital imaging system ImageQuant LAS 4000 (Amersham GE Healthcare) and transferred to a digital image processing software to analyze (Adobe Photoshop CS2, version 9.0., Adobe Systems Inc., San Jose, Calif.).
Signaling pathways targeted by cannabinoids in myelomatous cells. To get further insights into the mechanisms of cannabinoids-induced apoptosis, we assessed the expression profile of phosphorylated-JNK, -Erk1/2, -p38 MAPK and -Akt by Western blot.

Q: What does the source list for CS(=O)(=O)O.Cc1c(C(=O)c2cccc3ccccc23)c2cccc3c2n1[C@H](CN1CCOCC1)CO3 [WIN-55, (R)-(+)-[2,3-dihydro-5-methyl-3-(4-morpholinylmethyl)-pyrrolo-[1,2,3]-1,4-benzoxazin-6-yl]-1-naphthalenylmethanone mesylate]?
A: tumor volume / tumor growth compared to vehicle-treated counterparts [1]: inhibit tumor growth; ER-stress in AML cells [2]: increase the ER-stress; p-Akt at early time points ([3]; U266): significant up-regulation; p-Akt expression levels at later times ([3]; U266): sharp decline; total Akt-expression, first 6 hours of exposure ([3]; U266): remained unchanged; p-JNK ([3]; U266, WIN-55 50 uM): slightly up-regulated; up-regulation of p-Erk1/2, compared with the slight up-regulation of p-JNK ([3]; U266, WIN-55 50 uM): to a lesser extent; p-p38 MAPK ([3]; U266, time-dependent): moderately downregulated
